Data on 15 compounds can be found in patent US10112932B2, “Benzoxazepin oxazolidinone compounds and methods of use” (Genentech, Inc., priority 2015, dated 2018).

Like-named read-outs stand apart in the source and are kept apart here.

The test system of assay [1] is SW48 (parental) PI3Kα wild-type cells, P-PRAS40. Briefly: Inhibition of P-PRAS40 in SW48 isogenic cells, PI3Kα wild-type parental (Example 902). Particulars: Homo sapiens, SW48, 24 h, read-out: P-PRAS40 SW48 (parental) EC50.
Another assay deals with PI3Kα (Homo sapiens (Human), UniProt P42336). Briefly: Biochemical inhibition of PI3K alpha (ADP-Glo lipid kinase assay, Example 901). The following applies: for Ki: geometric mean of minimum three experiments unless footnoted; for Selectivity for PI3Kα vs. PI3K-β: Ki ratio beta/alpha; for Selectivity for PI3Kα vs. PI3Kγ: Ki ratio gamma/alpha. As to the method: (§1) Reactions are carried out using the following conditions for each PI3K isoform as in Table 5.
Chain of PI3Kα (P42336 whole entry, canonical isoform): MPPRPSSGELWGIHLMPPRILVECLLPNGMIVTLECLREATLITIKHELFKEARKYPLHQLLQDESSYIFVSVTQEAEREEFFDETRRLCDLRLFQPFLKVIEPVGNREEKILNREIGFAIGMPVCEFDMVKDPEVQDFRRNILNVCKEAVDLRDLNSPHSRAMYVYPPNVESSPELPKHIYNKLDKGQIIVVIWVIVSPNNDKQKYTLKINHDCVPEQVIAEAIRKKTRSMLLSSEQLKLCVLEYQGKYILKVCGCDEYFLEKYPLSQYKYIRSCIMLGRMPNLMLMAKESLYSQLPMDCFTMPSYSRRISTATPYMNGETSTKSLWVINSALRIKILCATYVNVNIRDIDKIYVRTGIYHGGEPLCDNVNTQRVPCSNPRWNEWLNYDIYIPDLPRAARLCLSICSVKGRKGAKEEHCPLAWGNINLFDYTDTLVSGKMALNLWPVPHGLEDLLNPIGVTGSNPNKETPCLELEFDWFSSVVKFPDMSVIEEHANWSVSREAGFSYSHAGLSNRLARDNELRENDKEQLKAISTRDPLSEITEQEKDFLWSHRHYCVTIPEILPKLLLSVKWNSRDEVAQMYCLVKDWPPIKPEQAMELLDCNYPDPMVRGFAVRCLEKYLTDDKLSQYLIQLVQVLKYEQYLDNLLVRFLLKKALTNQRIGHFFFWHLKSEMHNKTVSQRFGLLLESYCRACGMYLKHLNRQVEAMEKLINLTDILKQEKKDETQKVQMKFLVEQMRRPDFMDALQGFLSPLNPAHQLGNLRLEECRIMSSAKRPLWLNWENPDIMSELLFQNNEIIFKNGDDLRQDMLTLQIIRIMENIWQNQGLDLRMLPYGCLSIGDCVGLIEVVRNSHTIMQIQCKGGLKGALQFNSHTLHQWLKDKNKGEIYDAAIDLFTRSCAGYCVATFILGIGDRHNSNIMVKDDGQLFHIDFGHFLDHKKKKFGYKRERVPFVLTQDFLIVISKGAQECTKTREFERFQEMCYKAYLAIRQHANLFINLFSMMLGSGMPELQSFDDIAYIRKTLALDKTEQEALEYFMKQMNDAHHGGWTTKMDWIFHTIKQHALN
Chain of PI3Kα (P27986 whole entry partner, canonical isoform): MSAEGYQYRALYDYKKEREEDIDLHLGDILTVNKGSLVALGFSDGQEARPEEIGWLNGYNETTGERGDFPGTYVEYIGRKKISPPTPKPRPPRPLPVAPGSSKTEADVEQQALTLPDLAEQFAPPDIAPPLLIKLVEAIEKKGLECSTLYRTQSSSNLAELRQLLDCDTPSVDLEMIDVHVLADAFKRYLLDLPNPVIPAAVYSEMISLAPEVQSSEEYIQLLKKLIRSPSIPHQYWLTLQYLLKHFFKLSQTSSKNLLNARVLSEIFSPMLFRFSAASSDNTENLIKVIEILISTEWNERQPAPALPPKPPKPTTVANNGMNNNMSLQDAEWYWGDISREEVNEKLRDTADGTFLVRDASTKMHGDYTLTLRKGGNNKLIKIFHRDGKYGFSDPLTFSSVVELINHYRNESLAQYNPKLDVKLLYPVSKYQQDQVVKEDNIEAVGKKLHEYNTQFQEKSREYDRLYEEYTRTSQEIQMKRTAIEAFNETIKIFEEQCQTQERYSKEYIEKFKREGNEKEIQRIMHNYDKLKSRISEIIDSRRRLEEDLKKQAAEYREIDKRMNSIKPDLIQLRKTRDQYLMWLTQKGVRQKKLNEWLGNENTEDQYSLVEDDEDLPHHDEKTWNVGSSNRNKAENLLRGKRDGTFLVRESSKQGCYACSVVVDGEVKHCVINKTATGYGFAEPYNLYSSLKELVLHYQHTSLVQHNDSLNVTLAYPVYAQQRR
(§2) All reactions are carried out at room temperature. […] The reaction is started by the addition of 2 μl ATP/MgCl2. The kinase reaction buffer contains 50 mM HEPES, 50 mM NaCl 3 mM MgCl2, 0.01% BSA, 1% DMSO, and enzyme and substrate concentrations as indicated in the above table. The reaction is stopped by the addition of 10 μL ADP-Glo reagent. Plates are read in a Perkin Elmer Envision system using luminescence mode. 10 point dose response curves are generated for each test compound. Ki values for each compound are determined using the Morrison Equation.

The test system of assay [2] is SW48 (H1047R) PI3Kα mutant cells, P-PRAS40. Put plainly: Inhibition of P-PRAS40 in SW48 isogenic cells, kinase domain mutant H1047R (Example 902). The following applies: for EC50: Homo sapiens, SW48, 24 h, read-out: P-PRAS40 SW48 (H1047R) EC50; for Fold Selectivity for SW48 (H1047R) vs. SW48 (parental): EC50 ratio.
For assay [3], the system named is SW48 (E545K) PI3Kα mutant cells, P-PRAS40. Put plainly: Inhibition of P-PRAS40 in SW48 isogenic cells, helical domain mutant E545K (Example 902). Particulars: for EC50: Homo sapiens, SW48, 24 h, read-out: P-PRAS40 SW48 (E545K) EC50; for Fold Selectivity for SW48 (E545K) vs. SW48 (parental): EC50 ratio.
The target in a further assay is PI3Kγ (Homo sapiens (Human), UniProt P48736). Briefly: Biochemical inhibition of PI3K gamma (ADP-Glo lipid kinase assay, Example 901). Particulars: geometric mean of minimum three experiments. Here is the method:
as §1, §2

The target of another assay is PI3Kβ (Homo sapiens (Human), UniProt P42338). Put plainly: Biochemical inhibition of PI3K beta (ADP-Glo lipid kinase assay, Example 901). The following applies: geometric mean of minimum three experiments. As to the method:
as §1, §2
A general note: ADP-Glo turns the ADP formed in a reaction into a luminescent signal.

The target in the next assay is PI3Kδ (Homo sapiens (Human), UniProt O00329). Briefly: Biochemical inhibition of PI3K delta (ADP-Glo lipid kinase assay, Example 901). The following applies: geometric mean of minimum three experiments unless footnoted. Here is the method: as §1, §2
Chain of PI3Kδ (O00329 whole entry): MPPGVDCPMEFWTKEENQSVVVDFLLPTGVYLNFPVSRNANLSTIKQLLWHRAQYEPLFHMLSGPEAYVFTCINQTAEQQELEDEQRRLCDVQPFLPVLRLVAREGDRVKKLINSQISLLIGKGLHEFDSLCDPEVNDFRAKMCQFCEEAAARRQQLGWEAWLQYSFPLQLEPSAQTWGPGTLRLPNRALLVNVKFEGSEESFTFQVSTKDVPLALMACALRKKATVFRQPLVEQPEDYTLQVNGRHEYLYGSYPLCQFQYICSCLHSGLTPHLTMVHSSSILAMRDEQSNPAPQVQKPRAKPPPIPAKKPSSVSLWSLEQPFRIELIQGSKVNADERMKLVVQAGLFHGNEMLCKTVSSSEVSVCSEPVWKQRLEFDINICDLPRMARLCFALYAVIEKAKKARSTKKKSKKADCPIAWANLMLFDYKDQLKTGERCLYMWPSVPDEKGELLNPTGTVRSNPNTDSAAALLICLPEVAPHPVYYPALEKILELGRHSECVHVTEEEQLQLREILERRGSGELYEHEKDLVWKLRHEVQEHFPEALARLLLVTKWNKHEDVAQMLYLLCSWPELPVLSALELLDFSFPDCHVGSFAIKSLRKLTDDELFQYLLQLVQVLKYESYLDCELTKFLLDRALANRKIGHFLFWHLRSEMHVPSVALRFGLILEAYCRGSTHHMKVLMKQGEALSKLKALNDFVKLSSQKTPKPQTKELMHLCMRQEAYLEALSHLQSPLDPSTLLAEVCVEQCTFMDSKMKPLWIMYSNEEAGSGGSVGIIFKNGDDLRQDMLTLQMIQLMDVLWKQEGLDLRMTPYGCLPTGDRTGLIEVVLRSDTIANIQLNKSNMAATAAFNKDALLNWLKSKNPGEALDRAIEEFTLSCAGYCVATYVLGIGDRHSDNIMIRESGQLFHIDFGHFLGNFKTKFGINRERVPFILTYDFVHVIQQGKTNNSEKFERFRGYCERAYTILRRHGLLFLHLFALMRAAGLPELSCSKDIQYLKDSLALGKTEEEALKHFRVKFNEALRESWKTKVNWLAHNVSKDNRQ
Chain of PI3Kδ (P27986 whole entry partner): as the sequence (P27986 whole entry partner, canonical isoform) above
The test system of assay [4] is HDQ-P1 (PI3Kα wild-type), p-PRAS40. Briefly: p-PRAS40 MSD assay in HDQ-P1 cells (Example 907). Particulars: Homo sapiens, HDQ-P1, 24 h, read-out: P-PRAS40 HDQ-P1 MSD EC50.
Experimental: The following day, cells are treated with compounds and incubated for 24 hours. […] The HCC1954 cell line expresses mutant PI3Kα (E545K) vs WT in HDQP1.
The MSD platform provides a method of measuring the phosphorylated levels of pPRAS40 in a single sample. […] Following cell lysis, PRAS40 in samples is allowed to bind to the capture antibodies.
Procedure: • Compounds prepared at concentration of 2 mM in DMSO.
Day 1: Cell Plating • 1. Seed 12.500 cells in 45 ul medium for each cell line. Allow cells to settle/attach to plate for 15-20 min at room temperature. • 2. Incubate cells overnight in a 37° C. humidity and CO2 controlled incubator.
Day 2: Compound Plate Preparation and Compound Treatment • 1. For the 10× intermediate dilution plate: add 95 ul serum-free media into a standard profile greiner 384 well polypropylene plate. • 2. Use biomek Fx protocol for intermediate compound dilution in media and addition to cells: “SLS Intermed Dil Add 5 ul to Cells Jul. […] The method then transfers 5 ul from the intermediate dilution plate to the appropriate cell plate. • 3. Incubate the treated cells at 37 degrees for 24 hours in a 5% CO2 humidified incubator.
Block the MSD assay plate with 50 ul 3% Blocker A/1×MSD Wash Buffer 1-2 hr at room temp. […] Blocking buffer A contains 1×MSD wash buffer. 20 mL 1× Tris Wash buffer and 600 mg Blocker A.
Aspirate Media and Lyse the Cells • 1. Lyse the cells in 50 μl lysis buffer. Lyse at room temperature for 10-20 minutes on plate shaker. • 2. While cells are lysing, wash blocked plates 1×MSD wash buffer. • 3. Transfer 42 ul lysates (21+21 μL) to a blocked MSD pPRAS40 assay plate. • 4. Seal MSD plates and incubate at 4° C. with shaking overnight.
Day 4: MSD Assay/Detection • 8. Make a solution of 1% Blocker A in 1×MSD wash buffer. (20 mL 1× Tris Wash buffer and 200 mg Blocker A (1% w/v). This solution can be stored at 4° C. for up to one month. • 9. Wash the MSD plates with 1×MSD wash buffer. • 10. Add 10 μl of the diluted SULFO-TAG detection antibody to the plates. Incubate for 1 hr with shaking at room temp.
Wash the plates 4× with 1×MSD wash buffer. • 12. Add 35 μl 1× Read buffer with reverse pipetting to avoid bubbles. • 13. Read the plate immediately on the MSD SECTOR instrument.
Assay [5] has as its system CD69 expression in CD19+ CD27− B cells. Put plainly: B-cell a-IgM CD69 expression, human whole blood assay (Example 906). It counts as cell-based. The following applies: human whole-blood IC50 multiplied by measured human fu, read-out: B-cell a-IgM CD69 expression IC50, plasma-protein-binding corrected. Here is the method:
The expression of CD69 in B-cells resultant from a-IgM treatment is believed to be driven by signaling through PI3Kδ (delta).
Human whole blood was dispensed into 96-deep well plates at 100 μl per well. Compounds were diluted in DMSO to generate the desired stock concentrations and then further diluted in PBS to the desired working concentration and added in a volume of 5.5 μL per well. Samples were then incubated for 1 hour at 37° C. under 5% CO2 before the addition of 5 μg (10 μl per well) of Goat anti IgM F(ab′)2 (Southern Biotech, AL), and incubated for 18 hours at 37° C. under 5% CO2. All treatments were tested in duplicate.
In addition, human whole blood from each donor was stained with isotype-matched fluorescent control antibodies. After the addition of the appropriate antibody cocktail the whole blood samples were stained for 30 minutes in the dark and then lysed using BD Pharm Lysis (BD Bioscience, NJ). The resulting samples were then washed with FACS Buffer (Phosphate Buffered Saline (Ca:Mg++ free), 1 mM EDTA, 25 mM HEPES pH 7.0, 1% Fetal Bovine Serum (Heat-Inactivated) and fixed in FACS Buffer supplemented with 0.1% Formaldehyde (Polysciences Inc, PA) and 0.1% Pluronic F-68 (Sigma, MO). Data were acquired using a BD LSR-II (BD Biosciences) with BD FACSDiva software.
Cells were assessed by flow cytometry for levels of CD19, CD27 and CD69 using BD FACSDiva Software and the CD69 MFI-Mean of the CD19^+ CD27^− lymphocyte population was determined.

Chain of PI3Kγ (P48736 whole entry): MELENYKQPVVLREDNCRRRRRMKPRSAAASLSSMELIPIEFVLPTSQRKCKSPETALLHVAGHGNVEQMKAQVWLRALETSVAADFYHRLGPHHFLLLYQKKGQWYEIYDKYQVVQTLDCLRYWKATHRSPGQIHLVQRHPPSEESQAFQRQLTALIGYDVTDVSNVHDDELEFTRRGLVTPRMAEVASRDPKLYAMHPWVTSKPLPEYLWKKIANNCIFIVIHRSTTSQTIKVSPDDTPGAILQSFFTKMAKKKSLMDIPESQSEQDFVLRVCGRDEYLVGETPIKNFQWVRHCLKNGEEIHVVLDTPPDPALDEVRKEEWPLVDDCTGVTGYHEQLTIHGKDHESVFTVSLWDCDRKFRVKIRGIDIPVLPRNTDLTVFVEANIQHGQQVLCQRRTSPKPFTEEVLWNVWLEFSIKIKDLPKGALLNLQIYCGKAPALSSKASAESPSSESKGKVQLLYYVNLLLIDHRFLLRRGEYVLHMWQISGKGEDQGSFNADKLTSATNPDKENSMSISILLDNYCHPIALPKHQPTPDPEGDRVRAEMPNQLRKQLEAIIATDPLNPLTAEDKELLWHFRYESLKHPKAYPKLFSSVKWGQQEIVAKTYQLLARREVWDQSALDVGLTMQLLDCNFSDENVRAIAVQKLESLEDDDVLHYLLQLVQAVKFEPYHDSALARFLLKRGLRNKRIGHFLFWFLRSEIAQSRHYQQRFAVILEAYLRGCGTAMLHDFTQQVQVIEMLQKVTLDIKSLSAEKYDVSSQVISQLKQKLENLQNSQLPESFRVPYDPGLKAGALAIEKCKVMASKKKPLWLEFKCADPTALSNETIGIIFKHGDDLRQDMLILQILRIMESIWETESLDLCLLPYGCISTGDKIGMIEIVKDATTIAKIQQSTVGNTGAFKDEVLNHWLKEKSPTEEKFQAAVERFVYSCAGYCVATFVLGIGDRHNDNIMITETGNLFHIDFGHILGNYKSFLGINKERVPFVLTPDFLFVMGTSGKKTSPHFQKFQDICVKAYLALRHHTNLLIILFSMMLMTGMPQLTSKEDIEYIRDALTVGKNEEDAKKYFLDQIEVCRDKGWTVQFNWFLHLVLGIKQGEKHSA
Chain of PI3Kβ (P42338 whole entry): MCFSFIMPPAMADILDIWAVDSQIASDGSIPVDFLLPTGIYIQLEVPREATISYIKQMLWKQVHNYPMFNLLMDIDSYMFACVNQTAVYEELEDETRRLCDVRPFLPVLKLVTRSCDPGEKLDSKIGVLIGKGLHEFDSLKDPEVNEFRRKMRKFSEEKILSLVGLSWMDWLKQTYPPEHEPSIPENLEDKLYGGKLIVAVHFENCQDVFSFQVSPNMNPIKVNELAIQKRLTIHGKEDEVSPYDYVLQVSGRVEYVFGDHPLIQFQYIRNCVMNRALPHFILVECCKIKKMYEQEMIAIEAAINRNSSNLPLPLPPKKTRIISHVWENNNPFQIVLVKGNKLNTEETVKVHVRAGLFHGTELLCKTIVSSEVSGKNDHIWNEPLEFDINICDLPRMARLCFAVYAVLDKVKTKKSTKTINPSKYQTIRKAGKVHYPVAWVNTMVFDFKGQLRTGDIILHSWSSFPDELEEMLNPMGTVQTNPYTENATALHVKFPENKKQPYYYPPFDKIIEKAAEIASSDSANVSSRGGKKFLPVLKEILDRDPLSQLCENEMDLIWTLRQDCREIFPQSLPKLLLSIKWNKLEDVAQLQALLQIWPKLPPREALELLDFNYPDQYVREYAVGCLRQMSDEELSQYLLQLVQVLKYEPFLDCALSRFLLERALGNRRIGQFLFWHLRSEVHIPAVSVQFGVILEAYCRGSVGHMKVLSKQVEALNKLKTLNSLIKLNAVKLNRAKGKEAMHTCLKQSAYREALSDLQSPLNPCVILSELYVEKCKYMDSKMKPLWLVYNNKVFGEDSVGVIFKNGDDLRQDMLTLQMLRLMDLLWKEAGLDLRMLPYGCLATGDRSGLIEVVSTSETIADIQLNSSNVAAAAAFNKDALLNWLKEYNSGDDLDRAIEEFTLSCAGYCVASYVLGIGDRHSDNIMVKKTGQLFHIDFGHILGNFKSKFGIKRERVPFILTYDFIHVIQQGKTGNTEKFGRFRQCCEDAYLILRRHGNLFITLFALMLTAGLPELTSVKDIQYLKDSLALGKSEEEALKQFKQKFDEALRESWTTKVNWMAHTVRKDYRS
Chain of PI3Kβ (P27986 whole entry partner): as the sequence (P27986 whole entry partner, canonical isoform) above

One may read the EC50 as the concentration at which the effect is half-maximal. Broadly, the Ki is a measure of affinity in units of concentration, obtained from inhibition or displacement. A higher Ki goes with lower affinity. On to `CC(C)n1ncnc1-c1cn2c(n1)-c1ccc(OC(C(N)=O)C3CC3)cc1OCC2` (single isomer, unassigned) [549 (separated stereoisomer 1), reference compound], for which the results for the half-maximal effective concentration (EC50) in assay [1], in assay [2] and in [3] were 11.9 nM, 14.7 nM and 10.5 nM, respectively. Also, on PI3Kα, affinity was put at a Ki of 0.56 nM.

Consider `CC(C)n1ncnc1-c1cn2c(n1)-c1ccc(OC(C(N)=O)C3CC3)cc1OCC2` (single isomer, unassigned) [549 (separated stereoisomer 2), reference compound], for which the Ki on PI3Kα is 5.66 nM.

Turning to `CC(C)(O)Cn1cc(-c2ccc3c(c2)OCCc2sc(N4C(=O)OCC4(C)C)nc2-3)cn1` [356 (U.S. Pat. No. 8,263,633), reference compound], the “Selectivity for PI3Kα vs. PI3Kδ” value on PI3Kα (Ki ratio delta/alpha, fold) is 0.95.

In the case of `C[C@@H]1COC(=O)N1c1cn2c(n1)-c1ccc(N[C@H](C(N)=O)C3CCC3)cc1OCC2` [Compound 102, (S)-2-cyclobutyl-2-((2-((R)-4-methyl-2-oxooxazolidin-3-yl)-5,6-dihydrobenzo[f]imidazo[1,2-d][1,4]oxazepin-9-yl)amino)acetamide], the results for the EC50 in assay [1], in assay [2] and in [3] were 84.9 nM, 35.8 nM and 33.5 nM, respectively. Further, the Ki on PI3Kγ is 708 nM; at PI3Kβ it was over 1000 nM; at PI3Kα, 0.949 nM; on PI3Kδ it was 286 nM. In addition, at PI3Kα (fold), the “Selectivity for PI3Kα vs. PI3K-β” value is reported as over 1054. In addition, on PI3Kα (Ki ratio delta/alpha, fold), the “Selectivity for PI3Kα vs. PI3Kδ” value was 301. Besides, the “Selectivity for PI3Kα vs. PI3Kγ” value at PI3Kα (fold) was 746. In [2], the “Fold Selectivity for SW48 (H1047R) vs. SW48 (parental)” value is 2.4 (p = 0.001). Moreover, in [3], the “Fold Selectivity for SW48 (E545K) vs. SW48 (parental)” value is given as 2.5 (p = 0.002).

For the compound `C[C@@H]1COC(=O)N1c1cn2c(n1)-c1ccc(N[C@H](C(N)=O)C3CC3)cc1OCC2` [Compound 104, (S)-2-Cyclopropyl-2-((2-((R)-4-methyl-2-oxooxazolidin-3-yl)-5,6-dihydrobenzo[f]imidazo[1,2-d][1,4]oxazepin-9-yl)amino)acetamide], the EC50 is 61.8 nM in assay [1], 22.8 nM in [2] and 20 nM in assay [3]. Moreover, the Ki came out at 289 nM on PI3Kγ, 813 nM at PI3Kβ, 0.464 nM at PI3Kα and 197 nM at PI3Kδ. Further, at PI3Kα (fold), the “Selectivity for PI3Kα vs. PI3K-β” value came to 1750. Besides, at PI3Kα (Ki ratio delta/alpha, fold), the “Selectivity for PI3Kα vs. PI3Kδ” value stood at 425. Moreover, on PI3Kα (fold), the “Selectivity for PI3Kα vs. PI3Kγ” value is 622. For the same compound, in assay [2], the “Fold Selectivity for SW48 (H1047R) vs. SW48 (parental)” value was 2.7 (p = 0.009). Moreover, the “Fold Selectivity for SW48 (E545K) vs. SW48 (parental)” value in [3] is 3.1 (p = 0.007).

With `NC(=O)[C@@H](Nc1ccc2c(c1)OCCn1cc(N3C(=O)OC[C@H]3CF)nc1-2)C1CC1` [Compound 105, (S)-2-Cyclopropyl-2-((2-((S)-4-(fluoromethyl)-2-oxooxazolidin-3-yl)-5,6-dihydrobenzo[f]imidazo[1,2-d][1,4]oxazepin-9-yl)amino)acetamide], the 50% effective concentration (EC50) in assay [1] was determined as 12.5 nM; in assay [4], 179 nM; in assay [2], 4.8 nM; in assay [3], 4.2 nM. Also, the Ki at PI3Kγ worked out at 36.4 nM; at PI3Kβ, 341 nM; at PI3Kδ, 30.3 nM.

For the compound `C[C@H](Nc1ccc2c(c1)OCCn1cc(N3C(=O)OC[C@H]3CF)nc1-2)C(N)=O` [Compound 106, (S)-2-((2-((S)-4-(Fluoromethyl)-2-oxooxazolidin-3-yl)-5,6-dihydrobenzo[f]imidazo[1,2-d][1,4]oxazepin-9-yl)amino)propanamide], the EC50 in assay [1] worked out at 11.5 nM; in assay [2], 4.4 nM; in [3] it was 4.5 nM. Moreover, the Ki stood at 17.8 nM on PI3Kγ, 122 nM on PI3Kβ, 0.04 nM on PI3Kα and 16.7 nM on PI3Kδ. The “Selectivity for PI3Kα vs. PI3K-β” value at PI3Kα (fold) is on record as 3050. For the same compound, the “Selectivity for PI3Kα vs. PI3Kδ” value on PI3Kα (Ki ratio delta/alpha, fold) is given as 416. Also, the “Selectivity for PI3Kα vs. PI3Kγ” value on PI3Kα (fold) is 444. Moreover, the “Fold Selectivity for SW48 (H1047R) vs. SW48 (parental)” value in assay [2] was 2.6 (p = 0.001). In assay [3], the “Fold Selectivity for SW48 (E545K) vs. SW48 (parental)” value was 2.5 (p = 0.003).

Turning to `CC[C@H](Nc1ccc2c(c1)OCCn1cc(N3C(=O)OC[C@H]3C(F)F)nc1-2)C(N)=O` [Compound 107, (S)-2-((2-((S)-4-(Difluoromethyl)-2-oxooxazolidin-3-yl)-5,6-dihydrobenzo[f]imidazo[1,2-d][1,4]oxazepin-9-yl)amino)butanamide], the figures for the EC50 in assay [1], in [2] and in assay [3] were 10.8 nM, 5.2 nM and 5.3 nM, respectively. The Ki on PI3Kγ was 23.7 nM; on PI3Kβ, 132 nM; at PI3Kα, 0.048 nM; at PI3Kδ it was 17.5 nM. Further, the “Selectivity for PI3Kα vs. PI3K-β” value at PI3Kα (fold) is given as 2782. Also, the “Selectivity for PI3Kα vs. PI3Kδ” value at PI3Kα (Ki ratio delta/alpha, fold) is on record as 368. In addition, the “Selectivity for PI3Kα vs. PI3Kγ” value at PI3Kα (fold) is 499. For the same compound, the “Fold Selectivity for SW48 (H1047R) vs. SW48 (parental)” value in assay [2] is recorded as 2.1 (p = 0.003). The “Fold Selectivity for SW48 (E545K) vs. SW48 (parental)” value in [3] is given as 2.0 (p = 0.003).

`CC(C)n1ncnc1-c1cn2c(n1)-c1ccc(N3CCC[C@H]3C(N)=O)cc1OCC2` [Compound 375, reference compound]: the “Selectivity for PI3Kα vs. PI3Kδ” value on PI3Kα is 21.7. Also, affinity on PI3Kδ was put at a Ki of 0.417 nM.

Turning to `NC(=O)[C@@H]1CCCN1c1ccc2c(c1)OCCn1cc(-c3ncnn3CC(F)(F)F)nc1-2` [Compound 469, reference compound], the “Selectivity for PI3Kα vs. PI3Kδ” value at PI3Kα (Ki ratio delta/alpha, fold) is listed as 19.3. Also, the Ki was under 0.02 nM at PI3Kα and 0.39 nM on PI3Kδ.

Consider `C[C@H](Oc1ccc2c(c1)OCCn1cc(-c3ncnn3CC(F)(F)F)nc1-2)C(N)=O` [Compound 486, reference compound], for which the “Selectivity for PI3Kα vs. PI3Kδ” value on PI3Kα (Ki ratio delta/alpha, fold) stood at 13.4.

In the case of `CC(C)C(Oc1ccc2c(c1)OCCn1cc(-c3ncnn3CC(F)(F)F)nc1-2)C(N)=O` (stereo not shown) [Compound 501, reference compound], the “Selectivity for PI3Kα vs. PI3Kδ” value on PI3Kα (Ki ratio delta/alpha, fold) is 6.1. In addition, the Ki on PI3Kα stood at 3.56 nM; on PI3Kδ, 21.8 nM.

As to `C[C@H](Nc1ccc2c(c1)OCCn1cc(-c3ncnn3CC(F)(F)F)nc1-2)C(N)=O` [Compound 529, reference compound], the results for the EC50 in assay [1], in assay [2] and in assay [3] were 1.6 nM, 0.9 nM and 0.8 nM, respectively. Also, the “Selectivity for PI3Kα vs. PI3Kδ” value on PI3Kα (Ki ratio delta/alpha, fold) is 46.9. Further, the inhibition constant (Ki) was 0.023 nM on PI3Kα and 1.05 nM at PI3Kδ. Besides, the “Fold Selectivity for SW48 (H1047R) vs. SW48 (parental)” value in assay [2] is 2.0. The “Fold Selectivity for SW48 (E545K) vs. SW48 (parental)” value in [3] came out at 2.2.

Turning to `CC(C)n1ncnc1-c1cn2c(n1)-c1ccc(N(C)[C@@H](C)C(N)=O)cc1OCC2` [Compound 550, reference compound], at PI3Kα (Ki ratio delta/alpha, fold), the “Selectivity for PI3Kα vs. PI3Kδ” value came to 19.4. Also, the values for the Ki on PI3Kα and at PI3Kδ were 0.107 nM and 1.96 nM, respectively.

The IC50 is the point on the concentration scale where inhibition reaches its midpoint. Consider `CC[C@H](Nc1ncnc2nc[nH]c12)c1nc2cccc(F)c2c(=O)n1-c1ccccc1` [idelalisib, 5-fluoro-3-phenyl-2-[(1S)-1-(7H-purin-6-ylamino)propyl]-4(3H)-quinazolinone], for which the IC50 in assay [5] worked out at 48 nM.
